Consider 1 compound from BindingDB's records for patent US11752155 (Rugen Holdings (Cayman), 2023).

In the data set the target is hERG (Potassium voltage-gated channel subfamily H member 2) (Homo sapiens, UniProt Q12809). Kind of data set: hERG Channel Inhibition. The note with it: HEK293 cells stably expressing hERG channel, pH 7.35.
Sequence of hERG (Potassium voltage-gated channel subfamily H member 2) (Q12809 whole entry): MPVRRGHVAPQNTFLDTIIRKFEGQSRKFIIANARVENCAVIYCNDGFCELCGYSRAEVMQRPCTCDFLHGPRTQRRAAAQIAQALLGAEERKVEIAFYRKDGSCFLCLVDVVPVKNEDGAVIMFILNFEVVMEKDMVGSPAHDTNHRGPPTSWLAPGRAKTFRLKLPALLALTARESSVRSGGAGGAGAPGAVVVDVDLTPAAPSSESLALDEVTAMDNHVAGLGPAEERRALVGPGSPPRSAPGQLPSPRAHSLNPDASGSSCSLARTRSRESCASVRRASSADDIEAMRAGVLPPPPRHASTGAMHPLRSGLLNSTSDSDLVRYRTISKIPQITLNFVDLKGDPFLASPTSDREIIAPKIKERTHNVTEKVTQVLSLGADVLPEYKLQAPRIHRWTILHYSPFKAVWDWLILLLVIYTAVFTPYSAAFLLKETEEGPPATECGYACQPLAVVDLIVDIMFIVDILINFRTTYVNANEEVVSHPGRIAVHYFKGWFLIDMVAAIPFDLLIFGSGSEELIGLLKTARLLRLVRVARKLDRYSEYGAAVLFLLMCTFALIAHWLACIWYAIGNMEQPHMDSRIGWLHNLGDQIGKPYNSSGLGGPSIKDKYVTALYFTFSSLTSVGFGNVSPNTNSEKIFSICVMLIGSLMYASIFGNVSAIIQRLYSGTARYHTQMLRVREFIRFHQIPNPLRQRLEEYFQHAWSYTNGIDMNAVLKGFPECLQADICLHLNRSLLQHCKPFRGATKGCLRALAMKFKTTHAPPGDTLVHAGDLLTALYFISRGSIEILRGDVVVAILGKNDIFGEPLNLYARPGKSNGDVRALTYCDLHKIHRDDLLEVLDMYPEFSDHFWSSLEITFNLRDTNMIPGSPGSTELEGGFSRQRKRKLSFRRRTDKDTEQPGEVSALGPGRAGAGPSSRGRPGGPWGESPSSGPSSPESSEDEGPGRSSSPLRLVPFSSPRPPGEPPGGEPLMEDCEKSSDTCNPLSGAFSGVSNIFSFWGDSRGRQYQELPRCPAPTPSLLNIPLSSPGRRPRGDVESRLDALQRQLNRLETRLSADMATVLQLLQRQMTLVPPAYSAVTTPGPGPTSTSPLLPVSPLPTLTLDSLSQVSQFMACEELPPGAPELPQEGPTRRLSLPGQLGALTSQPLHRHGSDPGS

Description: The assay was performed on hERG channel stably expressed in HEK293 cells. The cells were cultured at 37° C. in a humidified CO2 incubator in the growth medium consisting of DMEM, 10% fetal bovine serum and antibiotics. Prior to the assay, the cells were seeded onto a 12-mm PDL-coated glass coverslip and cultured in a 35-mm Petri dish. […] Giga-seal was maintained during the test. […] Whole-cell hERG currents were recorded following the Petroski protocol: the cell was held at −80 mV, and the voltage step jumped from −80 to 30 mV and stay for 2 seconds with a 20-millisecond prepulse at −40 mV. After depolarization, the voltage was decreased to −40 mV and stay for 2 seconds, and returned back to −80 mV. Test compound was applied by quartz capillary tubes tip (200 m inner diameter), and the flow rate was controlled at 2-3 mL/min with OctaFlow perfusion system. Different concentrations of the compound were applied to the cells for 5 minutes and the hERG current was measured three times before, during and after compound treatment. The data were analyzed using Clampfit 10 software (Molecular Devices) to generate IC50 values.

By IC50 is commonly meant the point on the concentration scale where inhibition reaches its midpoint. The compound `FC(F)(F)Oc1ccc(C(F)(F)CN2CCC(Nc3ncnc4[nH]ccc34)CC2)nc1` [US11752155, Compound C-11A'] yielded an IC50 at 5 min of 3.8 µM. In other words, the single-digit micromolar range.
